Reference: ChEMBL document CHEMBL1201862, “PubChem BioAssay data set” (2004)
Calls of active or inactive are those of the source.

Assays:
[1] = molecular target: T1, Rac GTPase-activating protein 1 (Homo sapiens, UniProt Q9H0H5); assay: blockers of MgcRacGAP-driven Rac1 GTP hydrolysis – biochemical, ADP Hunter fluorescence, primary and confirmatory, confirmation (AID 624330); type: functional
T1 sequence (Q9H0H5 whole entry): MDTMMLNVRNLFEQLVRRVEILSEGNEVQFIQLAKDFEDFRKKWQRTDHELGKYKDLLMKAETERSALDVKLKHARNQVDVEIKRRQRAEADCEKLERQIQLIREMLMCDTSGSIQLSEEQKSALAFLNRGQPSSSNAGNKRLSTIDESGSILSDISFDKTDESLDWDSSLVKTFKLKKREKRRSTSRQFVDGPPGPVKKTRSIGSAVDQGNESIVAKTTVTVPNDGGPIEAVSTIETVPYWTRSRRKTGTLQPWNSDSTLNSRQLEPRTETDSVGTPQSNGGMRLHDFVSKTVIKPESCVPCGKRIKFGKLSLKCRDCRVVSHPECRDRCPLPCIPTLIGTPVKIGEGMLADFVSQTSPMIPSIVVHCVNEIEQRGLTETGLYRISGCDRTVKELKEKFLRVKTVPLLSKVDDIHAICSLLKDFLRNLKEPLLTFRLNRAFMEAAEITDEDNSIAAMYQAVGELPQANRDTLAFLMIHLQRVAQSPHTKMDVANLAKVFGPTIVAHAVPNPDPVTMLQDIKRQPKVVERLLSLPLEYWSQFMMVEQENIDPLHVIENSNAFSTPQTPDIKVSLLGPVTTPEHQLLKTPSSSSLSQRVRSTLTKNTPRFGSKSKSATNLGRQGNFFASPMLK

Cytochrome P450 2C19 = Cytochrome P450 2C19 (Homo sapiens, UniProt P33261); assay: Cytochrome panel assay with activity outcomes. Panel member name: p450-cyp2c19 Compounds with AC50 equal or less than 10 uM are considered active; type: functional
Cytochrome P450 3A4 = Cytochrome P450 3A4 (Homo sapiens, UniProt P08684);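 note: CYP3A4 tested as one member of a cytochrome P450 panel screen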
[2] = viability of uninfected HEp-2 cells – cell-based, HTS, cytotoxicity control for RSV inhibitor project, dose response (AID 2410); type: functional; details: human respiratory syncytial virus
H4 = assay: Luminescence Cell-Based Dose Response HTS to Identify Activators of 5'UTR Stem-Loop Driven Prion Protein mRNA Translation in H4 Neuroglioblastoma Cells. [Related pubchem assays: 1829 (Project Summary), 1814 (Primary HTS)]; type: functional; details: Homo sapiens
[3] = Luminescence Cell-Based Dose Response HTS to Identify Activators of Luciferase Translation or Activity in H4 […] Cells. [Related pubchem assays: 1829 (Project Summary), 1814 (Primary HTS)]; type: functional
[4] = Luminescence Cell-Based Dose Confirmation HTS to Identify Activators of 5'UTR Stem-Loop Driven Alpha-Synuclein mRNA Translation in H4 Neuroglioblastoma Cells. [Related pubchem assays: 1829 (Project Summary), 1814 (Primary HTS)]; type: functional
Cytochrome P450 1A2 = molecular target: T2, Cytochrome P450 1A2 (Homo sapiens, UniProt P05177);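 note: PubChem cytochrome P450 panel assay, CYP1A2 panel member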
T2 sequence (P05177 whole entry): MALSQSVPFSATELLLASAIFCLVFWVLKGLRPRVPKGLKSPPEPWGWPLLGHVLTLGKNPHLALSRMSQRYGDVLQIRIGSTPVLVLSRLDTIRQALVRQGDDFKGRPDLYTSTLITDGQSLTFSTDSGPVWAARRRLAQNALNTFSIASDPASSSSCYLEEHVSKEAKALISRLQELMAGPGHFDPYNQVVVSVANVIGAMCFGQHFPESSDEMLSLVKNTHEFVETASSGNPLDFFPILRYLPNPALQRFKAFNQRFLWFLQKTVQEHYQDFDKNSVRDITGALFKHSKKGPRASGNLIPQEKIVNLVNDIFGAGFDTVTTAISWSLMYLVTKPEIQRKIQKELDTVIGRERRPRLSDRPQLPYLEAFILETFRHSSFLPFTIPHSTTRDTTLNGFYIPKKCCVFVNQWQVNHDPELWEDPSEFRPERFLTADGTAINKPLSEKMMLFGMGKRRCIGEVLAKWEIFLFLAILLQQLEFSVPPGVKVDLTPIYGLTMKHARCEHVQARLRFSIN

[5] = molecular target: T3, Corticotropin-releasing factor receptor 2/Corticotropin-releasing factor-binding protein (Homo sapiens, UniProt P24387+Q13324); assay: activators of CRF receptor 2 with binding protein – uHTS hits, confirmation (AID 602473); type: functional; details: read-out: EC50_Mean
T3 sequence (Q13324 whole entry): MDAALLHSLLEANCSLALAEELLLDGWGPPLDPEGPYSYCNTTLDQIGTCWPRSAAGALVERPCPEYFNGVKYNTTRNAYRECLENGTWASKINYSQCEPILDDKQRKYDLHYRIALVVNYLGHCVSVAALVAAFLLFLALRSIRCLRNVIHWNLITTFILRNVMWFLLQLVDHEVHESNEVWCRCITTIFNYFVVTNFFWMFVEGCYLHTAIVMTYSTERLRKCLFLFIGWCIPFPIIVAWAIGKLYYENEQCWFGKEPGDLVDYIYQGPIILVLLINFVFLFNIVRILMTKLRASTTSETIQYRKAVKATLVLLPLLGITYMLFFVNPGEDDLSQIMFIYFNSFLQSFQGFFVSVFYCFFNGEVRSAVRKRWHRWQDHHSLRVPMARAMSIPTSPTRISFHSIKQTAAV
T3 sequence (P24387 whole entry): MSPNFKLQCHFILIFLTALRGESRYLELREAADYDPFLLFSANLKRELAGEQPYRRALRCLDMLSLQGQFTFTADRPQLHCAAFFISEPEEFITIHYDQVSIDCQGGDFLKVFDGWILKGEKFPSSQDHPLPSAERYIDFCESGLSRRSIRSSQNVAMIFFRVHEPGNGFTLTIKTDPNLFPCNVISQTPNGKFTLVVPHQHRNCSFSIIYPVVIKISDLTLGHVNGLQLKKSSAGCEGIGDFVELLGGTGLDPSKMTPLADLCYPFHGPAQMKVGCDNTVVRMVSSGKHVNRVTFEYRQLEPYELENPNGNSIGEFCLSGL

[6] = test system: Streptococcus sp. 'group A'; assay: Streptococcus pyogenes SK(-)GAS viability under kanamycin – luminescence, BacTiterGlo, confirmation, counter-screen for streptokinase expression inhibitor project, dose response (AID 1900); type: functional, organism-based
Streptococcus = assay: GAS UMAA2166 growth inhibition – luminescence, BacTiterGlo, counter-screen for streptokinase expression inhibitor project, dose response (AID 1915); type: functional, organism-based;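 note: potency for reduction of bacterial viability or growth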
[7] = Luminescence Cell-Based Dose Retest to Confirm Inhibitors of Cancer Stem Cells. [Related pubchem assays (depositor defined):AID2717, AID2721]; type: functional; details: Homo sapiens

Sequence of Cytochrome P450 2C19 (P33261 whole entry): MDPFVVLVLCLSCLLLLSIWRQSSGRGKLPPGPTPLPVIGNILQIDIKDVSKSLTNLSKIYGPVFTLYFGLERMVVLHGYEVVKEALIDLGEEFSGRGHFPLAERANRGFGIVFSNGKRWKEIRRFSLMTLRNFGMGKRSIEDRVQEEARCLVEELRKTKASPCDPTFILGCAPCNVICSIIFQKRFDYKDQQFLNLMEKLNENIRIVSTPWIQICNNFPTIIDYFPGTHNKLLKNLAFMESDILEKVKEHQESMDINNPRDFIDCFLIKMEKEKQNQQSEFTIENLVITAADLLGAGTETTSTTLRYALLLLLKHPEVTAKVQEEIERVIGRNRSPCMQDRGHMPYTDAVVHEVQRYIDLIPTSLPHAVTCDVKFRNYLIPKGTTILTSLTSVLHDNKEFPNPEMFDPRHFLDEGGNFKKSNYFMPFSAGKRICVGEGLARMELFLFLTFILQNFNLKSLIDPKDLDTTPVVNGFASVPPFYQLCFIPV
Sequence of Cytochrome P450 3A4 (P08684 whole entry): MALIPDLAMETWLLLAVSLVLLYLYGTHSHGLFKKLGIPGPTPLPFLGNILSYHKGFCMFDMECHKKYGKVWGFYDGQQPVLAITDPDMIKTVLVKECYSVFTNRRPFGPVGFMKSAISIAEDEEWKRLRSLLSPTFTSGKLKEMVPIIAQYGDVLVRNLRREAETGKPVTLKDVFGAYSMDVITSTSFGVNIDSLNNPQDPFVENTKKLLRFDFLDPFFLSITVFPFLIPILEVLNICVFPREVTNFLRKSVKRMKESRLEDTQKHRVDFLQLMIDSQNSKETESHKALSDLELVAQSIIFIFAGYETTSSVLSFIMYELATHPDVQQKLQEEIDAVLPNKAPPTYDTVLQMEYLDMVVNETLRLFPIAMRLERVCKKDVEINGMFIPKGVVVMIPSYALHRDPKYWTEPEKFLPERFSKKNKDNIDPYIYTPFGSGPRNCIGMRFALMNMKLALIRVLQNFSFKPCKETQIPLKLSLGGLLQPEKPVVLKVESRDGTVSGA

CCOc1cc(/C=C2\C(=O)N(Cc3ccco3)C(C)=C2C(=O)OC)ccc1O
IC50 [1]: 69.9 µM (active)

CCc1ccccc1OC[C@@H](O)CN[C@H]1CCCc2ccccc21
AC50 (Cytochrome P450 2C19; read-out: AC50): 2 µM (inconclusive)

CCNC(=O)CSc1nnc(C2CC2)n1-c1ccccc1
AC50 (Cytochrome P450 3A4): 28.2 µM (inconclusive)
AC50 (Cytochrome P450 2C19; read-out: AC50): 22.4 µM (inconclusive)

COc1ccc(/C=C2\CCCC3C2=NN(C(=O)c2ccco2)C3c2ccc(OC)c(OC)c2)cc1OC (stereo unspecified)
AC50 (Cytochrome P450 2C19; read-out: AC50): 31.6 µM (inconclusive)

CN(C)C(=O)Oc1cc(OC(=O)N(C)C)cc([C@@H](O)CNC(C)(C)C)c1
AC50 (Cytochrome P450 2C19): inconclusive

CCOc1ccc(Cl)cc1CNCCNCCO.Cl
AC50 (Cytochrome P450 2C19): inconclusive

COc1ccc(Cc2nc3ccc(C(=O)NCCc4cccc(C)n4)cc3o2)cc1
CC50 [2]: 19.7 µM (active)

Cc1ccc(NC(=O)c2ccc(NCCCN3CCOCC3)c([N+](=O)[O-])c2)cc1Cl
CC50 [2]: 12.8 µM (active)

Cc1cccc(N(C)Cc2nnc(-c3cccc(Br)c3)o2)c1
CC50 [2]: 33.1 µM (active)

C=C1CCO[C@@]2([C@H](O)[C@@](C)(O)CO)NC(=O)[C@]1(O)NC2=O
AC50 (Cytochrome P450 2C19): inconclusive

Cc1cnn(CCC(=O)NN=C(S)Nc2ccc(F)cc2)c1
AC50 (Cytochrome P450 3A4): 17.8 µM (inconclusive)
AC50 (Cytochrome P450 2C19; read-out: AC50): 17.8 µM (inconclusive)

O=C(c1ccco1)N1CCn2c1nc1ccccc12
EC50 (H4): 6.26 µM (active)
EC50 [3]: 35.3 µM (active)
EC50 [4]: 1.12 µM (active)

COC(=O)[C@H](CCSC)NC(=O)NCc1ccccc1F
AC50 (Cytochrome P450 2C19; read-out: AC50): 0.0158 µM (inconclusive)

CS(=O)(=O)N1CCN(C2C3CC4CC(C3)CC2C4)CC1 (stereo unspecified)
IC50 [1]: 152 µM (active)

c1ccc(Cn2c(Sc3nnnn3-c3ccccc3)nnc2-c2ccccc2)cc1
EC50 (H4): > 120 µM (not active)
EC50 [3]: 11.9 µM (active)
EC50 [4]: > 120 µM (not active)

Oc1ccc2ccccc2c1Br
IC50 [1]: 20.3 µM (active)

Cc1cc(N/C=C\C(=O)c2ccc(Cl)c(Cl)c2)no1
EC50 (H4): > 120 µM (not active)
EC50 [3]: 15 µM (active)
EC50 [4]: 2.53 µM (active)

Cc1nn(-c2ccc3ccccc3c2)c(=O)c2ccccc12
EC50 (H4): 29.7 µM (active)
EC50 [3]: 0.213 µM (active)
EC50 [4]: < 0.1 µM (active)

O=C1OC(c2ccccc2)=N/C1=C\N1CCCCC1
EC50 (H4): > 120 µM (not active)
EC50 [3]: 0.374 µM (active)
EC50 [4]: 0.176 µM (active)

CCOc1ccc(Nc2ncnc3c2nnn3Cc2ccccc2)cc1
EC50 (H4): 30.9 µM (active)
EC50 [3]: 18.8 µM (active)
EC50 [4]: 17.7 µM (active)

COCCn1c(=O)c(-c2cccc(C#N)c2)nc2cnc(Oc3ccc(OC)cc3)nc21
AC50 (Cytochrome P450 2C19; read-out: AC50): 39.8 µM (inconclusive)
AC50 (Cytochrome P450 1A2): 12.6 µM (inconclusive)

Cc1ccc(S(=O)(=O)N[C@H](C(=O)OCC(=O)N2N=C(c3ccc(Cl)cc3)CC2c2ccco2)C(C)C)cc1 (stereo partly specified)
EC50 [5]: > 53 µM (inactive)
CC50 [2]: > 50 µM (active)

O=C(CN1CCN(c2ncccn2)CC1)N1CCCC1
IC50 [1]: 176 µM (active)

Cc1ccc2nc(NC(=O)C3CCCN(S(=O)(=O)c4c[nH]cn4)C3)sc2c1 (stereo unspecified)
EC50 (H4): 20.8 µM (active)
EC50 [3]: 23.4 µM (active)
EC50 [4]: 30.4 µM (active)

CCCCCn1cc[n+](C2=C([N-]S(=O)(=O)c3ccc(Br)cc3)C(=O)c3ccccc3C2=O)c1
EC50 [6]: 4.17 µM (active)
EC50 (Streptococcus): 6.33 µM (active)

Cc1ccc(C(=O)Nc2cc(C(C)C)c(O)c(C(C)C)c2)cc1
CC50 [2]: 32 µM (active)

O=C(/C=C/c1ccccc1)OCCNC1=NS(=O)(=O)c2ccccc21
CC50 [2]: 36.4 µM (active)

CCOC(=O)c1ccc2[nH]c3c(c2c1)CCCC3NC=O (stereo unspecified)
CC50 [2]: 36 µM (active)

Nc1c(-c2ccccc2)cnn1-c1cccc(C(F)(F)F)c1
EC50 (H4): 8 µM (active)
EC50 [3]: 56.7 µM (active)
EC50 [4]: 0.538 µM (active)

COc1ccc(Oc2ncc3nc(-c4ccccc4)c(=O)n(C4CC4)c3n2)cc1
AC50 (Cytochrome P450 2C19; read-out: AC50): 31.6 µM (inconclusive)

C=C[C@@H]1c2cc(C)ccc2N(S(=O)(=O)c2ccc(C)cc2)[C@H](c2ccc(OC(C)=O)cc2)C1(C#N)C#N
AC50 [7]: 804 nM (active)

COc1ccc(CCNC(=O)Cn2cnc3c2c(=O)n(C)c(=O)n3C)cc1OC
AC50 (Cytochrome P450 2C19): inconclusive
AC50 (Cytochrome P450 1A2): 3.16 µM (inconclusive)

Cc1cccc(NC(=O)CSc2nnnn2C)n1
AC50 (Cytochrome P450 2C19; read-out: AC50): 39.8 µM (inconclusive)

COc1cc(/C=N/Nc2nc(C)cc(O)n2)ccc1O
IC50 [1]: 23.9 µM (active)

CCOc1cc(/C=N/N2CCN(Cc3ccccc3)CC2)ccc1O
IC50 [1]: 86.7 µM (active)

Cc1ccc2c(c1)/C(=N/C1CCCCC1)c1cc3ccccc3nc1-2
EC50 (H4): 0.408 µM (active)
EC50 [3]: 37.2 µM (active)
EC50 [4]: 14.9 µM (active)

CCCn1c(=O)c(C(=O)N/N=C/c2ccc(F)cc2)c(O)c2ccccc21
EC50 [6]: 1.99 µM (active)
EC50 (Streptococcus): 3.31 µM (active)

O/N=C1\CCCc2ccc(Cl)cc21
CC50 [2]: 19.5 µM (active)

C/C(=N\NC(=O)c1ccccc1C)c1ccc(NC(=O)c2cccs2)cc1
AC50 (Cytochrome P450 2C19; read-out: AC50): 31.6 µM (inconclusive)
AC50 (Cytochrome P450 1A2): 22.4 µM (inconclusive)

CCCCNCC(O)(c1ccc(Cl)cc1)c1ccc(Cl)cc1
CC50 [2]: 7.11 µM (active)
